Laboratory results taken from patent US6461844B1, “Liver GalNAc-1-phosphate kinase” (The Board of Trustees of the University of Arkansas, priority 1995, dated 2002).
Each block holds one molecule with its values, some of them ahead of it.

Columns and labels:
[1] = target: T1, GalNAc kinase (Sus scrofa, UniProt A0A287BB25); test: Phosphate donor specificity of GalNAc kinase; type: biochemical, pig; set-up: Radioactivity in Sugar-P: unit not given beside the values
T1 construct: This enzyme was purified about 1400-fold from the cytosolic fraction of pig kidney; from tissue; host or cells: pig kidney cytosol

[2] = target: T1, GalNAc kinase; test: Effect of substrate concentration on GalNAc kinase activity (Km); type: biochemical, pig; conditions: 300 μM GalNAc; Lineweaver-Burk; read-out: Km for ATP
Protocol: (§1) In FIG. 3A, various amounts of GalNAc were added to otherwise standard incubation mixtures containing 300 μM ATP, and the amount of GalNAc phosphorylated by the purified enzyme was determined. In FIG. 3B, the data was replotted by the method of Lineweaver and Burk. In FIG. 3C, various amounts of the other substrate, ATP, were added to otherwise standard incubation mixtures containing saturating (300 μM) levels of GalNAc and the amount of phosphorylation of GalNAc by the purified enzyme was determined.
(§2) GalNAc kinase activity was assayed in incubation mixtures of 200 μl containing the following components: [^3H]GalNAc (10,000 cpm), 1 μmole of ATP, 2 μmoles of MgCl2, 20 μmoles of Tris-HCl buffer, pH 7.5, and various amounts of the enzyme preparations to be assayed. Following an incubation for the appropriate time, the reaction was stopped by heating at 100° C. for 5 min., and the incubation mixture was applied to a column of DE-52. The column was washed with at least 5 column volumes of 10 mM (NH4)HCO3 buffer to remove unbound material, and then GalNAc phosphate was eluted with 500 mM ammonium bicarbonate. Aliquots of the wash and eluent were removed and assayed for their radioactive content by scintillation counting.

[3] = target: T1, GalNAc kinase; test: Azido-ATP[32P] photoaffinity labeling of the purified kinase; type: binding, pig; conditions: unlabeled nucleotide added
Protocol: The proteins were transferred to nitrocellulose membranes and exposed to film to detect the radioactive bands.
The purified enzyme fraction was incubated with azido-ATP[^32P], exposed to UV light and run on SDS gels. […] The product of the reaction was characterized as GalNAc-α-1-P by susceptibility of the phosphate group to mild acid hydrolysis, by its mobility on TLC and Dionex chromatography, and by high resolution NMR.
The GalNAc kinase was purified from the cytosolic fraction of pig kidney using the purification scheme described in the section above and outlined in Table I. Using this procedure, the kinase was purified about 1400-fold from crude extracts with a recovery of about 24%. […] In addition, the amount of label in that band increased with increasing amounts of the probe, and the labeling was inhibited by adding unlabeled ATP, but not by other nucleotides. […] Moreover, gel filtration of the native enzyme on Sephadex G-100 gave an activity peak in the region where proteins of about 48-51 kDa elute. Thus the native protein is probably a monomer of about 50 kDa molecular weight. Sufficient amounts of this protein band can be prepared to determine the amino acid sequence and to prepare antibodies.

[4] = Acid lability of the phosphate group of sugar phosphates; type: physicochemical; conditions: 0.05 N HCl, 100° C., up to 50 minutes
Protocol: A large amount of the radioactive product formed by the GalNAc kinase was isolated and purified on a DE-52 column, and this product was suspended in 0.05 N HCl and placed in a hot water bath at about 95° C. At various times, aliquots of the reaction mixture were removed, cooled, neutralized and passed through a column of DE-52 to determine whether the ^3H-GalNAc had lost its charge. Standards of Glc-6-P, Glc-1-P, GalNAc-1-P and GlcNAc-6-P were also subjected to the same hydrolysis conditions and were tested for their susceptibility to loss of phosphate.
The radioactive material was examined for purity and characterization by TLC chromatography on cellulose plates in 70% ethanol: 1 M ammonium acetate, pH 7.5 (7:3), or in 70% ethanol: 1 M ammonium acetate, pH 3.5 (7:3). The product was subjected to HPLC on the Dionex apparatus, using a column to separate various sugar phosphates from each other. Sugar-1-phosphates were distinguished from sugar-6-phosphates by their susceptibility to acid hydrolysis in 0.05 N HCl at 100° C. Sugar-1-phosphates are rapidly hydrolyzed whereas sugar-6-phosphates are stable. […]
The radioactive product from the ion exchange columns was suspended in 0.05 N HCl and heated at 100° C. for various periods of time. […] The amount of radioactivity that emerged in the wash was taken as a measure of removal of the phosphate group. […]

[5] = system: UDP-GlcNAc pyrophosphorylase; conditions: partially purified enzyme; cited from earlier work
[6] = system: UDP-GlcNAc pyrophosphorylases; conditions: UDP-GlcNAc = 100%; cited from earlier work
[7] = substrate: CC(=O)N[C@H]1C(O)O[C@H](CO)[C@H](O)[C@@H]1O; test: Effect of substrate concentration on GalNAc kinase activity (Km); type: biochemical, pig; conditions: other: 300 μM ATP; Lineweaver-Burk; pH 7.5
Protocol: as §1, §2

activity as phosphate donor [1]: by far the best phosphate donor
Radioactivity in Sugar-P ([1]; nucleotide added at 5 mM): 10,195
Specific Activity ([1]; nucleotide added at 5 mM): 160.0 nmol/mg
Km [2]: 100 µM
effect on labeling of the 50 kDa band by ATP[32P] photoaffinity probe [3]: inhibited
Molecule: Nc1ncnc2c1ncn2[C@@H]1O[C@H](COP(=O)(O)OP(=O)(O)OP(=O)(O)O)[C@@H](O)[C@H]1O [ATP]

Molecule: CC(=O)N[C@@H]1C(O)[C@H](O)[C@@H](COP(=O)(O)O)O[C@H]1O (stereo partly drawn) [GlcNAc-6-phosphate]
stability to acid hydrolysis [4]: quite stable

Molecule: CC(=O)N[C@H]1[C@@H](OP(=O)(O)OP(=O)(O)OC[C@H]2O[C@@H](n3ccc(=O)[nH]c3=O)[C@H](O)[C@@H]2O)O[C@H](CO)[C@H](O)[C@@H]1O [UDP-GalNAc]
rate of pyrophosphorolysis relative to UDP-GlcNAc [5]: about 2.8%
activity towards substrate [6]: 3%

B1: GalNAc kinase (Sus scrofa) (protein)
chain: MATEGPPVHQVQVAEHPRLLKLKEIFNSKFGSIPKFYVRAPGRVNIIGEHIDYCGYSVLPMAVEQDMLIAVEPVKTHTLQLANTNPLYPDFNTSADNIQIDKTKPLWHNYFLCGFKGIQEHFGLSNLIGMNCLVDGNIPPSSGLSSSSALVCCAGLVTLTVLGMNLSKVELAEICAKSERYIGTEGGGMDQSISFLAEEGTAKLIEFSPLRATDVKLPSGAVFVIANSCVEMNKAATSHFNIRVMECRLAAKLLAKHRSLQWDKVLRLEEVQAKLGVSLEEMLLITEDTLHPEPYSPEEVCQCLGISLQELKTQILSPNTQDVLTFKLYQRAKHVYSEAARVLQFKKICEEAPDDMVQLLGELMNQSHVSCRDMYECSCPELDQLVDICRKFGAQGSRLTGAGWGGCTVSIVLADKLPSFLANVHEAYYQKSGRSLAPEKQSLFATKPGGGALVFLEA
notes: This enzyme was purified about 1400-fold from the cytosolic fraction of pig kidney; from tissue; host or cells: pig kidney cytosol
Km [7]: 50 µM
